Where two headings read alike, the source gives them in different places. Where a SMILES comes first, the peptide text is derived from it. Bridges are numbered along the chain shown (N, C = ends).
Legend:
[1] = molecular target: Nav1.4 sodium channel (human SCN4A gene) (Homo sapiens, UniProt P35499); experiment: cell-based; parameters: host or cells: CHO; conditions: human Nav1.4 in CHO cells
[2] = molecular target: Kv1.5 potassium channel (human KCNA5 gene) (Homo sapiens, UniProt P22460); experiment: cell-based; parameters: host or cells: CHO; conditions: human Kv1.5 in CHO cells
Chain of Kv1.5 potassium channel (human KCNA5 gene) (P22460 whole entry): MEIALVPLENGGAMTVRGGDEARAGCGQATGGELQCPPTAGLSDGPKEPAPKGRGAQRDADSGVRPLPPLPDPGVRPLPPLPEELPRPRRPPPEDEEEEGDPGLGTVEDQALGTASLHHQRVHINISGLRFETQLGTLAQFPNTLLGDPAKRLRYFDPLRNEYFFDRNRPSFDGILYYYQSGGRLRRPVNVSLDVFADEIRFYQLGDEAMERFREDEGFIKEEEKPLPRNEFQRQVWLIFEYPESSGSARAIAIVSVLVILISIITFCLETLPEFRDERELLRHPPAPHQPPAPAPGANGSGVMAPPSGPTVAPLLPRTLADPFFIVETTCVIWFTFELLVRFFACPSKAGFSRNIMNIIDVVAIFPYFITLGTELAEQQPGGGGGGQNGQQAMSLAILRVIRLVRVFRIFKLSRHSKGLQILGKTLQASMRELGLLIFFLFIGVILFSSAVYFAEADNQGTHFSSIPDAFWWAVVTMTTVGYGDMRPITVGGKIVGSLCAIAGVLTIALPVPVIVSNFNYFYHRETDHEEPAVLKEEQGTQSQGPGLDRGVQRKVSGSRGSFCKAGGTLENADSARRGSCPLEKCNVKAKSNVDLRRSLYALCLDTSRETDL

[3] = molecular target: T1, Nav1.5 cardiac sodium channel (human SCN5A gene) (Homo sapiens, UniProt Q14524); experiment: cell-based
T1 sequence (Q14524 whole entry): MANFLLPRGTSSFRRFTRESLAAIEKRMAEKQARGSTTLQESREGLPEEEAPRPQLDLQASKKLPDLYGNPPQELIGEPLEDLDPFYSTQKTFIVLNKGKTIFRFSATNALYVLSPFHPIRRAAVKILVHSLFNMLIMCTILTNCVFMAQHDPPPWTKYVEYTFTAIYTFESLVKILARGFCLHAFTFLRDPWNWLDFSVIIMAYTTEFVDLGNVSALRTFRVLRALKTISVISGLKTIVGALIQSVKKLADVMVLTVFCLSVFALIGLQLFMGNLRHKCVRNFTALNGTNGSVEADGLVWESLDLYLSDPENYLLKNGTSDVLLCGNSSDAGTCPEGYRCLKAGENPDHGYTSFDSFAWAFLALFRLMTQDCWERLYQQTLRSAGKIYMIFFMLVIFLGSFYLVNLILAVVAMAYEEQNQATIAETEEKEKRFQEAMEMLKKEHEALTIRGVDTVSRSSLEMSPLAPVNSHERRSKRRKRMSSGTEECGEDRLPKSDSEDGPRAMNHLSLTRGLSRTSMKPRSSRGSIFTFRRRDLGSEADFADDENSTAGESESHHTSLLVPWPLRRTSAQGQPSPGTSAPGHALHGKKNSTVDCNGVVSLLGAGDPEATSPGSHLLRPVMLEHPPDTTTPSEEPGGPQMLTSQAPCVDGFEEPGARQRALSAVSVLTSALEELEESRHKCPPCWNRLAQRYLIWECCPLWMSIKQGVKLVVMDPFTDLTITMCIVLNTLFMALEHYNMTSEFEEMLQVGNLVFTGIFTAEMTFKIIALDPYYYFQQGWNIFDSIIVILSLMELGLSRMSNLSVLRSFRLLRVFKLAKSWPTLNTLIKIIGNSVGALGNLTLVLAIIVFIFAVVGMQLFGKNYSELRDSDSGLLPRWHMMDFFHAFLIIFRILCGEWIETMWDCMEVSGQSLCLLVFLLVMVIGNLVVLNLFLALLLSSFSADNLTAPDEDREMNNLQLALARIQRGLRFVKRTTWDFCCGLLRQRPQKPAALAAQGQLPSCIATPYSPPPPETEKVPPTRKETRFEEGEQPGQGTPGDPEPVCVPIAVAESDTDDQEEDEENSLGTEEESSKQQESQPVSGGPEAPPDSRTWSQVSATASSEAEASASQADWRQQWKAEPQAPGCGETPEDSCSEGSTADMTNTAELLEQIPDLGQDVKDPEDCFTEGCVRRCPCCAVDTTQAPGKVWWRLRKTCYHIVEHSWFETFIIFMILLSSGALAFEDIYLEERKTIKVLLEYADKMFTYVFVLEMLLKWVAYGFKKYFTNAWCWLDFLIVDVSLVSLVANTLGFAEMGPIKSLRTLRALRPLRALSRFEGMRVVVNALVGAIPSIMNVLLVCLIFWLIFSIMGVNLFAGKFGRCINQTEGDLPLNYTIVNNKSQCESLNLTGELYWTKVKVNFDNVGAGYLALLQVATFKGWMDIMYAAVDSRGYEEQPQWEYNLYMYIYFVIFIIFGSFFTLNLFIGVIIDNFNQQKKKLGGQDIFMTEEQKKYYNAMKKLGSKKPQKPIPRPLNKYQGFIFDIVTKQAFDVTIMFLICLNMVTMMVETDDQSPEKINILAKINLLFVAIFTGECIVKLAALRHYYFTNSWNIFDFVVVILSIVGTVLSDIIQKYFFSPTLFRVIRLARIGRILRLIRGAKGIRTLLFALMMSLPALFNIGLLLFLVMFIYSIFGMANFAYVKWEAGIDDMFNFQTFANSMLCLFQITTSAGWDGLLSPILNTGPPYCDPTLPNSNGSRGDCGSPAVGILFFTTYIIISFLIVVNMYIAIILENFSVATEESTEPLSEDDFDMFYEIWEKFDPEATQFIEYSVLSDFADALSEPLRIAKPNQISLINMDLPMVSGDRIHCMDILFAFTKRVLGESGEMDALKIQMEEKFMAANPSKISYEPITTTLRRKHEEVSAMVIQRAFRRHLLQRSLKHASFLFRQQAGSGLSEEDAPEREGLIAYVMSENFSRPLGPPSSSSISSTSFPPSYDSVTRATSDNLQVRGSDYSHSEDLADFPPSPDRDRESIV

[4] = molecular target: Nav1.7 sodium channel (human SCN9A gene) (Homo sapiens, UniProt Q15858); experiment: cell-based; parameters: expressed in transfected cells; host or cells: CHO cells; conditions: human Nav1.7 in CHO cells
panel of 20 ion channels = assay type: cell-based; conditions: potassium channels of the panel; 0.2 or 20 μM; FIG. 2
Experimental: This example describes a method for assaying ion channel activity in cells.
Peptides were screened in duplicate at final concentrations of 20 μM and 200 nM, as determined by amino acid analysis, and diluted into HEPES buffered physiological saline (HBPS). HEK293 or CHO cells from the American Type Culture Collection (ATCC) were transfected with the appropriate ion channel before use. HEK293 cells were grown in Dulbecco's Modified Eagle Medium/Nutrient Mixture F-12, and CHO cells were cultured in Ham's F-12 media. All cultures were supplemented with 10% fetal bovine serum, 100 U/ml penicillin G, 100 μg/ml streptomycin sulfate, and the appropriate selection antibiotics. Prior to use, cells were washed twice with Hank's Balanced Salt Solution, and treated with Accutase cell detachment solution (Sigma-Aldrich). Cells were then washed. Peptides and controls were incubated with cells for at least five minutes.
Percent inhibition was defined as: (1-(Ipeptide/Icontrol))×100%).
Percent values were calculated using the following formula: % activation=(IPeptide/Icontrol)×100%, where IPeptide is the current produced by co-application a peptide with agonist, and Icontrol refers to the current produced by stimulation in control. Control used for each ion channel is the reference compound matched to a particular channel, as illustrated in TABLE 10 below.

Nav1.7 = molecular target: T2, Nav1.7 (Homo sapiens, UniProt Q15858); experiment: cell-based; assay type: cell-based; conditions: 0.2 or 20 μM; FIG. 2
T2 construct: host or cells: HEK293 or CHO

[5] = molecular target: T1, Nav1.5 cardiac sodium channel (human SCN5A gene); conditions: read-out: IC50 Nav1.5 ion channel inhibition, TP2; human Nav1.5 in CHO cells; TP2 (inactivated state inhibition)
Kv1.3 [6] = molecular target: T3, Kv1.3 (Homo sapiens, UniProt P22001); experiment: cell-based; assay type: cell-based; conditions: for activity at 20 µM: peptide at 20 μM
T3 construct: host or cells: HEK293 or CHO
T3 sequence (P22001 whole entry): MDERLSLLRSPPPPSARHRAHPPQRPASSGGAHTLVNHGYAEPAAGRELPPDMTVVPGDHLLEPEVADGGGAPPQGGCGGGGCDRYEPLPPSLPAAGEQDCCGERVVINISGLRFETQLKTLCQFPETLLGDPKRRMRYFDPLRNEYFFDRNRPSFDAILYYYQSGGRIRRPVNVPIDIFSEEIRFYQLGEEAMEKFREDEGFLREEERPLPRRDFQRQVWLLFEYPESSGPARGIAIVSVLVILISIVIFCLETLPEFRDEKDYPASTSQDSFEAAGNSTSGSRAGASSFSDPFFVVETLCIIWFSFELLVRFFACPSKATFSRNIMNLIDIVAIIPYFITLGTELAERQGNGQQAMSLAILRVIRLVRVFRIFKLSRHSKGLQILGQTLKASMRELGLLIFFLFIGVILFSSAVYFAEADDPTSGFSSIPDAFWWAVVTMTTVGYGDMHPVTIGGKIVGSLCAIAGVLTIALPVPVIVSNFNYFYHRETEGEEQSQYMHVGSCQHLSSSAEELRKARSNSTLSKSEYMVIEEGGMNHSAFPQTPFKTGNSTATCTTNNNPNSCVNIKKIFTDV
Method in brief: (§1)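 Peptides were tested in duplicate at final 20 μM and 200 nM, with concentration set by amino acid analysis, in HEPES-buffered saline. They were applied for at least 5 min to HEK293 or CHO cells transfected with each channel. Currents were expressed as % inhibition, 1-(Ipeptide/Icontrol)×100, or % activation, Ipeptide/Icontrol×100, against a channel-matched reference compound.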

[7] = molecular target: Kv1.3 potassium channel (human KCNA3 gene) (Homo sapiens, UniProt P22001); experiment: cell-based; parameters: host or cells: CHO; conditions: human Kv1.3 in CHO cells
Chain of Kv1.3 potassium channel (human KCNA3 gene) (P22001 whole entry): as above

[8] = molecular target: Nav1.3 sodium channel (human SCN3A gene) (Homo sapiens, UniProt Q9NY46); experiment: cell-based; parameters: host or cells: CHO; conditions: human Nav1.3 in CHO cells
hERG = hERG (Homo sapiens, UniProt Q12809); experiment: in vitro; conditions: 0.2 or 20 μM; FIG. 2
Method in brief: as §1

[9] = molecular target: T1, Nav1.5 cardiac sodium channel (human SCN5A gene); experiment: in vitro
Kv1.1 = molecular target: T4, Kv1.1 (Homo sapiens, UniProt Q09470); experiment: cell-based; assay type: cell-based; conditions: Kv1.1; peptide at 20 μM; percentage of control, 100% = no change; read-out: Ion channel activity (ion channel inhibition)
T4 construct: host or cells: HEK293 or CHO
Method in brief: as §1

Kv1.3 [10] = molecular target: T3, Kv1.3; conditions: prior reports; cited from earlier work
[11] = Kv1.3, percentage of control, 100% = no change, read-out: Ion channel activity (ion channel inhibition)

Chain of Nav1.4 sodium channel (human SCN4A gene) (P35499 whole entry): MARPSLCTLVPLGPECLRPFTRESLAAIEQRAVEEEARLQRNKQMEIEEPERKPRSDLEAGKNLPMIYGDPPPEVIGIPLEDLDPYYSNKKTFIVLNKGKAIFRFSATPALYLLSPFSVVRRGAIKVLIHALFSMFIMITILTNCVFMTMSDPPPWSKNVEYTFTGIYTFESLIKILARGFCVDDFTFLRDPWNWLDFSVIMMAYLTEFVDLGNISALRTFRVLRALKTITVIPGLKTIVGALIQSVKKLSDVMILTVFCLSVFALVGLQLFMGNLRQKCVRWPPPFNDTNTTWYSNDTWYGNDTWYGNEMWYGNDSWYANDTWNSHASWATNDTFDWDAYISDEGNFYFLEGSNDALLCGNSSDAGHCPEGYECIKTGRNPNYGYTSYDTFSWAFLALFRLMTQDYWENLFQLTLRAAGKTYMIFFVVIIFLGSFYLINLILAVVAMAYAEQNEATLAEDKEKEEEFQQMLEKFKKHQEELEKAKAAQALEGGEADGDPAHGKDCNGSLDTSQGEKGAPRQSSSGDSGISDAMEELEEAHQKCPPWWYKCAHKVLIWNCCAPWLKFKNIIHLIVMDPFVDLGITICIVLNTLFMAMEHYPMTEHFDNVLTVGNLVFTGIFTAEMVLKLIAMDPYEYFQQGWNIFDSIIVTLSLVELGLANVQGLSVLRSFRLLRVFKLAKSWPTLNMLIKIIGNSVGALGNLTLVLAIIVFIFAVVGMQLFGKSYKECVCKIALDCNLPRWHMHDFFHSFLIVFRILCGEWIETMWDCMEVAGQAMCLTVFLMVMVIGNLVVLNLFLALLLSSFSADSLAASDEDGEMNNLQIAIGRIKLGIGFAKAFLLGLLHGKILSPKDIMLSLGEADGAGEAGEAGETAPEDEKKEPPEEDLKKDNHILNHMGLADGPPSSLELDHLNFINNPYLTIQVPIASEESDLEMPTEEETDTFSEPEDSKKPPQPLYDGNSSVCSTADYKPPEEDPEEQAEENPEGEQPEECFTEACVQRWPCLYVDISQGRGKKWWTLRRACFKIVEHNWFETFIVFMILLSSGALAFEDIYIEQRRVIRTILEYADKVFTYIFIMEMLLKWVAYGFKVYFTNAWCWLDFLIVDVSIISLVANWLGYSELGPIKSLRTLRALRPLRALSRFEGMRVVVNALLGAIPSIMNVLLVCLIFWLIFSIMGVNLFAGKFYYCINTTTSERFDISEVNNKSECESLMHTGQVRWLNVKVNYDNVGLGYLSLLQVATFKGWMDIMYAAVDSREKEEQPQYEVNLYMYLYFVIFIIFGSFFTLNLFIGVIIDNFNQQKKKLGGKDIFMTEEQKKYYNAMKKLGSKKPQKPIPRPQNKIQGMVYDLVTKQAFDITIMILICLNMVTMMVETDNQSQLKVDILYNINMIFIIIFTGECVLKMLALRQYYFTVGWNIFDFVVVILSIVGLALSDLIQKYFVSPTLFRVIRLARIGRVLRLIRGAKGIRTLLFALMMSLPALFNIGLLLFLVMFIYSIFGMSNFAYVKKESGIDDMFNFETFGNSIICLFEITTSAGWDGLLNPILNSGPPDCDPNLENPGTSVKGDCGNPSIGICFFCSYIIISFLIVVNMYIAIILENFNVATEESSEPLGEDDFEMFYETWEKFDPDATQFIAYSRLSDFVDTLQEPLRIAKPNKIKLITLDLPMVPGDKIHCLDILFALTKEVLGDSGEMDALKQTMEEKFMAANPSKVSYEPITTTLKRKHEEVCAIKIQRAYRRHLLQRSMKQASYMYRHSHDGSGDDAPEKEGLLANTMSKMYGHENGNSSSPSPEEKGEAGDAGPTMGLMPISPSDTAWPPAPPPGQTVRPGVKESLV

## CC[C@H](C)[C@@H]1NC(=O)[C@@H]2CSSC[C@H](NC(=O)[C@H](CCCCN)NC(=O)[C@@H](NC(=O)[C@H](CC(N)=O)NC(=O)[C@@H](NC(=O)[C@@H]3CCCN3C(=O)[C@@H](NC(=O)CNC(=O)[C@H](CO)NC(=O)CN)C(C)C)[C@@H](C)CC)C(C)C)C(=O)N[C@@H](CCCNC(=N)N)C(=O)NCC(=O)N[C@@H](CO)C(=O)N[C@@H](CCCNC(=N)N)C(=O)N[C@@H](CC(=O)O)C(=O)N[C@H]3CSSC[C@H](NC(=O)[C@H](CCCCN)NC(=O)[C@H](CO)NC(=O)[C@H](CC(N)=O)NC1=O)C(=O)N[C@@H](Cc1c[nH]cn1)C(=O)N[C@H](C(=O)N[C@H](C(=O)N1CCC[C@H]1C(=O)O)[C@@H](C)O)CSSC[C@H](NC(=O)[C@@H]1CCCN1C(=O)[C@H](CC(=O)O)NC(=O)[C@H](CC(C)C)NC3=O)C(=O)N[C@@H](CCCCN)C(=O)N[C@@H](CCCCN)C(=O)N[C@@H](C)C(=O)NCC(=O)N[C@@H](CCSC)C(=O)N[C@@H](CCCNC(=N)N)C(=O)N[C@@H](Cc1ccccc1)C(=O)NCC(=O)N[C@@H](CCCCN)C(=O)N2 [SEQ ID NO: 5] (H-GSGVPINVKCRGSRDCLDPCKKAGMRFGKCINSKCHCTP-OH; disulfide 10-30, 16-35, 20-37)
[1]; TP1 (tonic inhibition), read-out: IC50 Nav1.4 ion channel inhibition, TP1
  IC50: > 1000 nM
[1]; TP2 (inactivated state inhibition), read-out: IC50 Nav1.4 ion channel inhibition, TP2
  IC50: > 1000 nM
[2]; test pulse TP1, read-out: IC50 Kv1.5 ion channel inhibition, TP1
  IC50: > 1000 nM
[2]; test pulse TP6, read-out: IC50 Kv1.5 ion channel inhibition, TP6
  IC50: > 1000 nM
[3]
  IC50: > 1000 nM
[4]; TP1 (tonic inhibition), read-out: IC50 Nav1.7 ion channel inhibition, TP1
  IC50: > 1000 nM
[4]; TP2 (inactivated state inhibition), read-out: IC50 Nav1.7 ion channel inhibition, TP2
  IC50: > 1000 nM
Panel of 20 ion channels
  Activity on potassium channels: active on a subset of potassium channels
Nav1.7
  Activity against Nav1.7 channels: showed additional activity
[5]
  IC50: > 1000 nM
Kv1.3 [6]; [11]
  activity at 20 µM: < 50%
[7]; test pulse TP1, read-out: IC50 Kv1.3 ion channel inhibition, TP1
  IC50: > 1000 nM
[7]; test pulse TP6, read-out: IC50 Kv1.3 ion channel inhibition, TP6
  IC50: > 1000 nM
[8]; TP1 (tonic inhibition), read-out: IC50 Nav1.3 ion channel inhibition, TP1
  IC50: > 1000 nM
[8]; TP2 (inactivated state inhibition), read-out: IC50 Nav1.3 ion channel inhibition, TP2
  IC50: > 1000 nM
hERG
  Activity against / inhibition of hERG (Kv11.1): showed additional activity

## CC[C@H](C)[C@H](NC(=O)[C@H](CCCNC(=N)N)NC(=O)[C@@H](NC(=O)[C@H](CO)NC(=O)CN)C(C)C)C(=O)N1CCC[C@H]1C(=O)N[C@H](C(=O)N[C@@H](CO)C(=O)N[C@H]1CSSC[C@@H]2NC(=O)[C@H](CCCCN)NC(=O)CNC(=O)[C@H](Cc3ccccc3)NC(=O)[C@H](CCCNC(=N)N)NC(=O)[C@H](CCSC)NC(=O)CNC(=O)[C@H](C)NC(=O)[C@H](CC(=O)O)NC(=O)[C@H](CCCCN)NC(=O)[C@@H]3CSSC[C@@H](C(=O)N[C@H](C(=O)N4CCC[C@H]4C(=O)N[C@@H](CCCCN)C(=O)O)[C@@H](C)O)NC(=O)[C@H](CC(=O)O)NC(=O)[C@H](CSSC[C@H](NC(=O)[C@H](CCC(N)=O)NC(=O)CNC(=O)[C@H](CO)NC(=O)[C@H](Cc4c[nH]cn4)NC(=O)[C@H](CCCCN)NC1=O)C(=O)N[C@@H](CC(C)C)C(=O)N[C@@H](CCCCN)C(=O)N1CCC[C@H]1C(=O)N3)NC(=O)[C@H](CCCCN)NC(=O)CNC(=O)[C@H](CC(N)=O)NC(=O)[C@H](CCSC)NC2=O)C(C)C [SEQ ID NO: 6] (H-GSVRIPVSCKHSGQCLKPCKDAGMRFGKCMNGKCDCTPK-OH; disulfide 9-29, 15-34, 19-36)
[9]
  IC50: > 1000 nM
Panel of 20 ion channels
  Activity on potassium channels: active on a subset of potassium channels
Kv1.3 [6]; Kv1.3, peptide at 0.2 μM, percentage of control, 100% = no change, read-out: Ion channel activity (ion channel inhibition)
  activity at 0.2 µM: < 80%
Kv1.3 [6]; [11]
  activity at 20 µM: < 50%
Kv1.1
  activity at 20 µM: < 50%

## GSNFKVEGACSKPCRKYCIDKGARNGKCINGRCHCYY [SEQ ID NO: 12]
Kv1.3 [6]; 0.2 or 20 μM, FIG. 2
  Kv1.3 inhibition: inhibit Kv1.3, consistent with these results
Kv1.3 [10]
  Kv1.3 inhibition, previously reported: previously reported to inhibit Kv1.3

— patent US20200262877A1, “ION CHANNEL-BINDING PEPTIDES AND METHODS OF USE THEREOF” (priority 2017, published 2020)
